Source: US20240246940A1, “HETEROARYL DERIVATIVE COMPOUND AND USE THEREOF” (VORONOI INC., priority 2021, published 2024)
Read-outs that look alike come from different tables or passages of the source.

Tests used:
[1] = tested on: BT-474 cells (HER2 overexpressing cell line); experiment: BT-474 cell proliferation inhibitory activity (CellTiter-Glo, 120 hours); type: cell-based
Protocol: To evaluate the cell proliferation inhibitory activity of the compound according to the present invention on HER2 and EGFR kinases, the following method was performed using HER2 overexpressing cell lines (SK-BR-3, BT-474, and N-87) and EGFR expressing cell line (HaCaT).
McCOY'S 5A supplemented with 10% FBS was used for SK-BR-3 cells, RPMI-1640 medium supplemented with 20% FBS was used for BT-474 cancer cells, and RPMI-1640 medium supplemented with 10% FBS was used for N-87 cancer cells. DMEM supplemented with 10% FBS was used for HaCaT cells.
For SK-BR-3 cells, 5000 cells were aliquoted into each well of a white clear bottom 96 well plate (Corning) 48 hours before treatment with the compounds of Examples. For BT-474 cells, 5000 cells were aliquoted into each well of a white clear bottom 96 well plate (Corning) 48 hours before treatment with the compounds of Examples. For N-87 cells, 5000 cells were aliquoted into each well of a white clear bottom 96 well plate (Corning) 24 hours before treatment with the compounds of Examples. For HaCaT cells, 3000 cells were aliquoted into each well of a white clear bottom 96 well plate (Corning) 24 hours before treatment with the compounds of Examples. For SK-BR-3 cells and BT-474 cells, the compounds of Examples were diluted in dimethyl sulfoxide (three-fold dilution, a total of 11 concentrations) and injected each in an amount of 1 μl to a final concentration of 0.2 nM to 10 μM. For N-87 cells, the compounds of Examples were diluted in dimethyl sulfoxide (five-fold dilution, a total of 11 concentrations) and injected each in an amount of 0.5 μl to a final concentration of […] to 5 μM. For HaCaT cells, the compounds of Examples were diluted in dimethyl sulfoxide (three-fold dilution, a total of 11 concentrations) and injected each in an amount of 0.5 μl to a final concentration of 0.8 nM to 45 μM. For the measurement of living cells, the cells were stored at room temperature for 10 minutes using CellTiter-Glo cell viability reagent (Promega) after a certain period of time (SK-BR-3: 120 hours, BT-474: 120 hours, N-87: 72 hours, and HaCaT: 72 hours) post treatment with the compounds of Examples, and the luminescence intensity thereof was measured using a reader (SynergyNeo, Biotek). Each test was repeated three times.
The result values were calculated as a cell growth rate (%) compared to those of the control group. A graph was created using the GraphPad Prism version 5.0 program, and GI50 values were calculated.

[2] = tested on: HaCaT cells (EGFR expressing cell line); experiment: HaCaT cell proliferation inhibitory activity (CellTiter-Glo, 72 hours); type: cell-based
Outline: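 Cells seeded 24 h (HaCaT 3000/well, N-87 5000/well) or 48 h (SK-BR-3, BT-474 5000/well) before 11-point dosing: 0.2 nM–10 μM (SK-BR-3, BT-474), […]–5 μM (N-87), 0.8 nM–45 μM (HaCaT). CellTiter-Glo luminescence read; GI50 from growth relative to control, triplicate.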

With `C=CC(=O)N1CCC(Oc2cc3c(Nc4cc(-c5ccc6ccsc6c5)ccc4OC)ncnc3cc2OC)CC1` [Example 193, 1-(4-((4-((5-(benzo[b]thiophen-6-yl)-2-methoxyphenyl)amino)-7-methoxy-quinazolin-6-yl)oxy)piperidin-1-yl)prop-2-en-1-one] the GI50 ([1]; Homo sapiens) was 150 to 1000 nM and the GI50 ([2]; Homo sapiens) was at most 150 nM.
Work on `C=CC(=O)N1CC[C@H](Oc2cc3c(Nc4cc(-c5ccc(F)cc5F)ccc4OC)ncnc3cc2OC)[C@@H](F)C1` [Example 152, 1-((3S,4S)-4-((4-((2′,4′-difluoro-4-methoxy-[1,1′-biphenyl]-3-yl)amino)-7-methoxy-quinazolin-6-yl)oxy)3-fluoropiperidin-1-yl)prop-2-en-1-one] yielded a GI50 ([1]; Homo sapiens) of 150 to 1000 nM and a GI50 ([2]; Homo sapiens) of 150 to 1000 nM.
`C=CC(=O)N1CC2(CC(Oc3cc4c(Nc5cc(-c6ccco6)ccc5OC)ncnc4cc3OC)C2)C1` [Example 218, 1-(6-((4-((5-(furan-2-yl)-2-methoxyphenyl)amino)-7-methoxy-quinazolin-6-yl)oxy)-2-azaspiro[3.3]heptan-2-yl)prop-2-en-1-one] was tested, and the GI50 ([1]; Homo sapiens) was over 1000 nM and the GI50 ([2]; Homo sapiens) was 150 to 1000 nM.
`C=CC(=O)N1CC[C@@H](Oc2cc3c(Nc4cc(-c5ccco5)ccc4OC)ncnc3cc2OC)[C@@H](F)C1` [Example 178, 1-((3S,4R)-3-fluoro-4-((4-((5-(furan-2-yl)-2-methoxyphenyl)amino)-7-methoxy-quinazolin-6-yl)oxy)piperidin-1-yl)prop-2-en-1-one] gave a GI50 ([1]; Homo sapiens) of at most 150 nM and a GI50 ([2]; Homo sapiens) of at most 150 nM.
`C=CC(=O)N1CCC(Oc2cc3c(Nc4cc(-c5cccc([N+](=O)[O-])c5)ccc4OC)ncnc3cc2OC)CC1` [Example 197, 1-(4-((7-methoxy-4-((4-methoxy-3′-nitro-[1,1′-biphenyl]-3-yl)amino)quinazolin-6-yl)oxy)piperidin-1-yl)prop-2-en-1-one] showed a GI50 ([1]; Homo sapiens) of 150 to 1000 nM and a GI50 ([2]; Homo sapiens) of over 1000 nM.
For `C=CC(=O)N1CCC(F)(F)C(Oc2cccc3ncnc(Nc4cc(-c5ccc(F)cc5F)ccc4OC)c23)C1` (stereo not shown) [Example 200, 1-(3-((4-((2′,4′-difluoro-4-methoxy-[1,1′-biphenyl]-3-yl)amino)quinazolin-5-yl)oxy)-4,4-difluoro-piperidin-1-yl)prop-2-en-1-one], the GI50 ([1]; Homo sapiens) was at most 150 nM and the GI50 ([2]; Homo sapiens) was at most 150 nM.
`C=CC(=O)N1CCC(Oc2cc3c(Nc4cc(-c5ccc(F)o5)ccc4OC)ncnc3cc2OC)CC1` [Example 88, 1-(4-((4-((5-(5-fluorofuran-2-yl)-2-methoxyphenyl)amino)-7-methoxy-quinazolin-6-yl)oxy)piperidin-1-yl)prop-2-en-1-one] was tested, and the GI50 ([1]; Homo sapiens) was at most 150 nM and the GI50 ([2]; Homo sapiens) was at most 150 nM.
`C=CC(=O)N1CCC2(CC1)CN(c1cc3c(Nc4cc(-c5ccco5)ccc4OC)ncnc3cc1OC)C2` [Example 324, 1-(2-(4-((5-(furan-2-yl)-2-methoxyphenyl)amino)-7-methoxyquinazolin-6-yl)-2,7-diazaspiro[3.5]nonan-7-yl)prop-2-en-1-one] was tested, and the GI50 ([1]; Homo sapiens) was over 1000 nM and the GI50 ([2]; Homo sapiens) was 150 to 1000 nM.
With `C=CC(=O)N1CCC(F)(F)C(Oc2cc(OC)cc3ncnc(Nc4cc(-c5ccc(F)cc5F)ccc4OC)c23)C1` (stereo not shown) [Example 100, 1-(3-((4-((2′,4′-difluoro-4-methoxy-[1,1′-biphenyl]-3-yl)amino)-7-methoxy-quinazolin-5-yl)oxy)-4,4-difluoro-piperidin-1-yl)prop-2-en-1-one] the GI50 [1] was at most 150 nM and the GI50 [2] was at most 150 nM.
With `COc1ccc(-c2ccco2)cc1Nc1ncnc2ccc(NC(=O)/C=C/CN(C)C)c(Cl)c12` [Example 321, (E)-N-(5-chloro-4-((5-(furan-2-yl)-2-methoxyphenyl)amino)quinazolin-6-yl)-4-(dimethylamino)but-2-enamide] the GI50 ([1]; Homo sapiens) was over 1000 nM and the GI50 ([2]; Homo sapiens) was 150 to 1000 nM.
In the case of `C=CC(=O)N1CCC(Oc2cc(OC)cc3ncnc(Nc4cc(-c5ccco5)ccc4OC)c23)C(F)(F)C1` (stereo not shown) [Example 195, 1-(3,3-difluoro-4-((4-((5-(furan-2-yl)-2-methoxyphenyl)amino)-7-methoxy-quinazolin-5-yl)oxy)piperidin-1-yl)prop-2-en-1-one], the GI50 ([1]; Homo sapiens) was at most 150 nM and the GI50 ([2]; Homo sapiens) was at most 150 nM.
